ChEMBL document CHEMBL4390686, “Design, Synthesis, and Pharmacokinetic Evaluation of Phosphate and Amino Acid Ester Prodrugs for Improving the Oral Bioavailability of the HIV-1 Protease Inhibitor Atazanavir” (J Med Chem, 2019)
Converted amounts (≈) assume the structure as drawn.

Assays:
physchem [1] = settings: 30% CH3CN/acetate buffer, pH 4
Description: Half life in pH 4 30%CH3CN/acetate buffer at 50 mM by RP-UPLC analysis

physchem [2] = settings: phosphate buffer, pH 6.5
Description: Aqueous solubility of the compound in pH 6.5 phosphate buffer by RP-UPLC analysis

physchem [3] = settings: 30% CH3CN/HCl buffer, pH 1
Description: Half life in pH 1 30%CH3CN/HCl buffer at 50 mM by RP-UPLC analysis

[4] = Cmax in cannulated Sprague-Dawley rat assessed as (R)-(5S,10S,11S,14S)-11-Benzyl-5,14-di-tert-butyl-3,6,13,16-tetraoxo-8-(4-(pyridin-2-yl)benzyl)-2,17-dioxa-4,7,8,12,15-pentaazaoctadecan-10-yl 2-Amino-3-methylbutanoate level at 3 mg/kg equiv of atazanavir administered orally by UPLC/MS/MS analysis; type: ADME, organism-based; parameters: dose 3 mg/kg, route oral; settings: in vivo, po
physchem [5] = settings: acetate buffer, pH 4
Description: Aqueous solubility of the compound in pH 4 acetate buffer by RP-UPLC analysis

physchem [6] = settings: HCl buffer, pH 1
Description: Aqueous solubility of the compound in pH 1 HCl buffer by RP-UPLC analysis

Protease = Protease (Human immunodeficiency virus 1, UniProt Q9YQ12)
Description: Inhibition of HIV1 protease activity

[7] = test system: Human immunodeficiency virus 1
Description: Antiviral activity against HIV1 NL4-3 infected in human MT2 cells assessed as reduction in viral yield measured after 4 days by EnduRen live cell substrate based luciferase reporter gene assay

[8] = rat, in vivo, po, 3 mg/kg
[9] = rat, in vivo, po, 3 mg/kg; remark: listed apart in the source
physchem [10] = settings: 30% CH3CN/phosphate buffer, pH 6.5
Description: Half life in pH 6.5 30%CH3CN/phosphate buffer at 50 mM by RP-UPLC analysis

[11] = Tmax in cannulated Sprague-Dawley rat assessed as (R)-(5S,10S,11S,14S)-11-Benzyl-5,14-di-tert-butyl-3,6,13,16-tetraoxo-8-(4-(pyridin-2-yl)benzyl)-2,17-dioxa-4,7,8,12,15-pentaazaoctadecan-10-yl 2-Amino-3-methylbutanoate level at 3 mg/kg equiv of atazanavir administered orally by UPLC/MS/MS analysis; type: ADME, organism-based; settings: in vivo, po
[12] = rat, in vivo, po, 3 mg/kg; remark: listed apart in the source
Description: AUClast in cannulated Sprague-Dawley rat assessed as atazanavir level at 3 mg/kg equiv of atazanavir administered orally by UPLC/MS/MS analysis

Protease, sequence (Q9YQ12 whole entry): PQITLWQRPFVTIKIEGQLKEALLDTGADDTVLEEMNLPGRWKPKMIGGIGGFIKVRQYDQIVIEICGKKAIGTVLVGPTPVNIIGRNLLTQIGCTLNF

## COC(=O)N[C@H](C(=O)N[C@@H](Cc1ccccc1)[C@H](CN(Cc1ccc(-c2ccccn2)cc1)NC(=O)[C@@H](NC(=O)OC)C(C)(C)C)OC(=O)[C@H](NC(=O)[C@H](N)C(C)C)C(C)C)C(C)(C)C
Physchem [1]
  half-life at 50000 µM: > 20.8 days
Physchem [2]
  solubility: 820 µg/mL (≈ 908 µM)
Physchem [3]
  half-life at 50000 µM: > 20.8 days
[4]
  Cmax: 1430 nM
Physchem [5]
  solubility: > 2200 µg/mL
Physchem [6]
  solubility: > 2400 µg/mL
Protease
  IC50: 4 to 1140 nM
[7]
  EC50: 0.9 to 1250 nM
[8]
  Tmax: 1 h
[9]
  Cmax: 12 nM
Physchem [10]
  half-life at 50000 µM: > 20.8 days
[11]
  Tmax: 30 min
[12]
  AUClast: 53 nM·h
